# Experimental data as given in paper PMC6506615, “Internalization of Erythrocyte Acylpeptide Hydrolase Is Required for Asexual Replication of Plasmodium falciparum” (mSphere, 2019).
# Target: T1, acylpeptide hydrolase (APEH) (Homo sapiens, UniProt P13798)
# T1 sequence (P13798 1-732): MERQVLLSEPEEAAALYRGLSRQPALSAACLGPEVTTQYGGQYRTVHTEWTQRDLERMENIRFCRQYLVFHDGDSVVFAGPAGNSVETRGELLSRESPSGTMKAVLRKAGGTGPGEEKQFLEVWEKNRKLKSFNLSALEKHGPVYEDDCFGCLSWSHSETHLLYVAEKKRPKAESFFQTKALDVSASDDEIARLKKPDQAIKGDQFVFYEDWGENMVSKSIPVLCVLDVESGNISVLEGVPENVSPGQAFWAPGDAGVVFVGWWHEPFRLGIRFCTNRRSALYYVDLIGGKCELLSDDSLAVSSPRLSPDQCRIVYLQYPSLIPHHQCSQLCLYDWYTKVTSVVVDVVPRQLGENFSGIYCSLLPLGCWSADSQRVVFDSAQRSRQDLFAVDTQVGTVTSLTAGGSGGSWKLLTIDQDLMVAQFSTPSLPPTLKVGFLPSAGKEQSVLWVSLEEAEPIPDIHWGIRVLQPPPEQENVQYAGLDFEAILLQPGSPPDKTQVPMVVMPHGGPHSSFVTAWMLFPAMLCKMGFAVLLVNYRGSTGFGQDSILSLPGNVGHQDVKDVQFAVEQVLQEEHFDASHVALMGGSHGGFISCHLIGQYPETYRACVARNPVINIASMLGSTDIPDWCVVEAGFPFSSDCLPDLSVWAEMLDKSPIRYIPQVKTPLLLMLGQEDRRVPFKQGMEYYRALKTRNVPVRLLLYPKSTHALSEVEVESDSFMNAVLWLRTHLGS
# Assay: competitive ABPP with TAMRA-FP in human erythrocyte lysate and saponin-isolated parasite lysate; also intact erythrocytes
# Assay type: biochemical
structure (smiles),measurement,value
CC(C)CC(O)(CC(C)C)c1cnn(C(=O)N2CCCC2)n1 [AA74-1],IC50,7.4 ± 2.4 nM
